Measured values taken from patent US20110166132A1, “Gamma Secretase Modulators” (Amgen Inc., priority 2007, published 2011).
pIC50: −log10 of the molar value.

target: T1, gamma secretase (Homo sapiens, UniProt P49768); assay: GSM cell-based assay: Aβ 42 inhibition or reduction in HEK 293 cells over-expressing APP (sandwich ELISA); details: approximate IC50; HEK293 cells stably expressing full length APP, 24 hours incubation, 10-point dose response starting at 10 μM
T1 construct: HEK293 cells stably expressing full length Amyloid Precursor Protein (APP); endogenous in cells; host or cells: HEK 293 cells stably expressing full length APP
Excerpt: GSM cell-based assays were designed to measure the modulation of Aβ 42 from HEK 293 cells over-expressing APP.
Three simultaneous cell-based assays, namely Aβ 42 inhibition or reduction, Aβ 40 inhibition or reduction and a measurement of cell viability of the cells from which the Aβ 42/40 readout was obtained, together gave an interpretation of gamma secretase modulation (GSM). The assays measure Aβ 42 and Ab 40 from conditioned medium of test compound treated HEK 293 cells.
HEK293 cells stably expressing full length Amyloid Precursor Protein (APP) were plated at a density of 100K cells/well in 96 well plates (Costar). The cells were cultivated for 6 hours at 37° C. and 5% CO2 in DMEM supplemented with 10% FBS. The test compounds were then added to cells in 10-point dose response concentrations with the starting concentration being 10 μM. The compounds were diluted from stock solutions in DMSO and the final DMSO concentration of the test compounds on cells was 0.1%. After 24 hours of incubation with the test compounds the supernatant conditioned media was collected and the Aβ 42, Aβ 40 levels were determined using a sandwich ELISA. A cell viability test (CellTiter-Blue Cell Viability assay, Promega) on the cells from which the conditioned medium was harvested for Aβ 42 or Aβ 40 readouts gave an indication of cell survivability as a possible reason for false positive Aβ 42 or 40 reduction or inhibition readout. The IC50 of the compound (for either Aβ 42 or Aβ 40) was calculated from the percent of control or percent inhibition of Aβ 42 or Aβ 40 as a function of the concentration of the test compound.
The sandwich ELISA to detect Aβ 42 or Aβ 40 was performed in 96 well microtiter plates, which were pre-treated with goat anti-rabbit IgG (Pierce). The capture and detecting antibody pair that were used to detect Aβ 42 and Aβ 40 from cell supernatants were rabbit monoclonal Antibody 42 (RabMAb 42) and affinity purified polyclonal Antibody 40 pAB40 (Biosource) as capture antibodies and biotinylated 6E10 (Signet Labs Inc.) as detection antibody. The optimal concentration for RabMAb 42 was 1 μg/ml in Superblock/TBS (Pierce) that was supplemented with 0.05% Tween 20 (Sigma). The optimal concentration for the pAb40 antibody was 3 μg/ml in Superblock/TBS (Pierce) that was supplemented with 0.05% Tween 20 (Sigma). Optimal concentration for the detection antibody 6E10-biotinylated was 0.5 μg/ml in Superblock/TBS (Pierce) that had been supplemented with 2% normal goat serum and 2% normal mouse serum.
Cellular supernatants were incubated with the capture antibody for 16-20 hours at 4° C., followed by 3 wash steps in TBS-tween (0.05%). The detecting antibody incubation was for 3 hours at 4° C., again followed by the wash steps as described previously. The final readout of the ELISA is Time-Resolved Fluorescence (counts per minute) using Delfia reagents Streptavidin-Europium and Enhancement solutions (Perkin Elmer) and the EnVision Multilabel plate reader (Perkin Elmer).

pIC50	SMILES
6.24	Cc1cc(-c2ccc(NC(=O)C(C)n3cnc(-c4ccccc4)c3)cc2)ccn1 (centres unmarked) [Cpd 151, N-(4-(2-methyl-4-pyridinyl)phenyl)-2-(4-phenyl-1H-imidazol-1-yl)propanamide]
6.32	Cc1cc(-c2ccc(NC(=O)C(c3ccccc3)C(C)C)cc2)ccn1 (centres unmarked) [Cpd 39, 3-methyl-N-(4-(2-methyl-4-pyridinyl)-phenyl)-2-phenylbutanamide]
5.26	Cc1cc(-c2ccc(NC(=O)c3cc4ccccc4n3C)cc2)ccn1 [Cpd 305]
5.67	Cc1cc(-c2ccc(NC(=O)C(C)c3ccc(N(C)C(C)C)cc3)cc2)ccn1 (centres unmarked) [Cpd 481, 2-(4-(methyl(1-methylethyl)amino)phenyl)-N-(4-(2-methyl-4-pyridinyl)phenyl)-propanamide]
6.34	Cc1cc(-c2ccc(NC(=O)Cc3cc(C(F)(F)F)cc(C(F)(F)F)c3)cc2)ccn1 [Cpd 87, 2-(3,5-bis(trifluoromethyl)phenyl)-N-(4-(2-methyl-4-pyridinyl)phenyl)acetamide]
6.74	Cc1cc(-c2ccc(NC(=O)C(CC3CC3)c3cccc(Br)c3)cc2)ccn1 (centres unmarked) [Cpd 163, 2-(3-bromophenyl)-3-cyclopropyl-N-(4-(2-methyl-4-pyridinyl)phenyl)propanamide]
5.93	Cc1cc(-c2ccc(NC(=O)C3(c4ccc(Cl)cc4Cl)CC3)cc2)ccn1 [Cpd 332]
< 5.00	Cc1cc(-c2ccc(NC(=O)[C@H](C)c3cccc(-c4ccc(C(=O)O)cc4)c3)cc2)ccn1 [Cpd 639]
6.51	CCN(Cc1cc(OC)c(OC)c(OC)c1)c1ccc(C(C)C(=O)Nc2ccc(-c3ccnc(C)c3)cc2)cc1 (centres unmarked) [Cpd 526, 2-(4-(ethyl(3,4,5-trimethoxybenzyl)amino)-phenyl)-N-(4-(2-methyl-4-pyridinyl)-phenyl)propanamide]
5.93	Cc1cc(-c2ccc(NC(=O)Cc3n[nH]c4ccc(Br)cc34)cc2)ccn1 [Cpd 79, 2-(5-bromo-1H-indazol-3-yl)-N-(4-(2-methyl-4-pyridinyl)phenyl)acetamide]
< 5.00	COc1cc(C(C)C(=O)Nc2ccc(-c3ccnc(C)c3)cc2)ccc1N (centres unmarked) [Cpd 574, 2-(4-amino-3-methoxyphenyl)-N-(4-(2-methyl-4-pyridinyl)phenyl)propanamide]
6.20	Cc1cc(-c2ccc(NC(=O)C(C)c3cccc(-c4ccc(S(C)(=O)=O)cc4)c3)cc2)ccn1 (centres unmarked) [Cpd 442, N-(4-(2-methyl-4-pyridinyl)phenyl)-2-(4′-(methylsulfonyl)-3-biphenylyl)propanamide]
5.24	Cc1cc(-c2ccc(NC(=O)C(C)c3cccc(Br)c3)cc2C#N)ccn1 (centres unmarked) [Cpd 460, 2-(3-bromophenyl)-N-(3-cyano-4-(2-methyl-4-pyridinyl)phenyl)propanamide]
6.52	Cc1cc(-c2ccc(NC(=O)C(C)c3ccc(NC(C)C)cc3)cc2)ccn1 (centres unmarked) [Cpd 443]
6.21	Cc1cc(-c2ccc(NC(=O)C(C)c3ccc(N4CCCCC4)nc3)cc2)ccn1 (centres unmarked) [Cpd 580, N-(4-(2-methyl-4-pyridinyl)phenyl)-2-(6-(1-piperidinyl)-3-pyridinyl)propanamide]
5.48	Cc1cc(-c2ccc(NC(=O)Cc3ccc(OCc4ccccc4)cc3)cc2)ccn1 [Cpd 111, 2-(4-(benzyloxy)phenyl)-N-(4-(2-methyl-4-pyridinyl)phenyl)acetamide]
< 5.00	Cc1cc(-c2ccc(NC(=O)Cc3c(C)noc3C)cc2)ccn1 [Cpd 89, 2-(3,5-dimethyl-4-isoxazolyl)-N-(4-(2-methyl-4-pyridinyl)phenyl)acetamide]
5.53	COc1cccc(C(=O)Nc2ccc(-c3ccnc(C)c3)cc2)c1 [Cpd 34]
5.61	Cc1cc(-c2ccc(NC(=O)C(C)c3ccc(NCC4CC4)cc3)cc2)ccn1 (centres unmarked) [Cpd 171, 2-(4-((cyclopropylmethyl)amino)phenyl)-N-(4-(2-methyl-4-pyridinyl)phenyl)-propanamide]
6.06	Cc1cc(-c2ccc(NC(=O)c3cccc(-c4ccccc4)c3)cc2)ccn1 [Cpd 386]
6.69	COc1ccc2cc([C@@H](C)C(=O)Nc3ccc(-c4ccnc(C)c4)cc3)ccc2c1 [Cpd 66, (2R)-2-(6-methoxy-2-naphthalenyl)-N-(4-(2-methyl-4-pyridinyl)phenyl)propanamide]

pIC50	SMILES
< 5.00	Cc1cc(-c2ccc(NC(=O)c3ccc(-c4ccccc4)cc3)cc2)ccn1 [Cpd 280]
6.31	COc1cc(NC(=O)C(C)c2cccc(Br)c2)ccc1-c1ccnc(C)c1 (centres unmarked) [Cpd 143]
6.87	Cc1cc(-c2ccc(NC(=O)C(CC(C)C)c3cccc(-c4ccc(N5CCN(C(=O)OC(C)(C)C)CC5)cc4)c3)cc2)ccn1 (centres unmarked) [Cpd 228, tert-butyl 4-(3′-(3-methyl-1-((4-(2-methyl-4-pyridinyl)phenyl)carbamoyl)butyl)-4-biphenylyl)-1-piperazinecarboxylate]
5.34	Cc1cc(-c2ccc(NC(=O)Cc3ccc4oc(-c5cccnc5)nc4c3)cc2)ccn1 [Cpd 583, N-(4-(2-methyl-4-pyridinyl)phenyl)-2-(2-(3-pyridinyl)-1,3-benzoxazol-5-yl)-acetamide]
5.38	Cc1cc(-c2ccc(NC(=O)Cc3ccc4c(c3)CCO4)cc2)ccn1 [Cpd 116, 2-(2,3-dihydro-1-benzofuran-5-yl)-N-(4-(2-methyl-4-pyridinyl)phenyl)acetamide]
< 5.00	COc1ncc(-c2cccc([C@@H](C)C(=O)Nc3ccc(-c4ccnc(C)c4)cc3)c2)cn1 [Cpd 502, (2R)-2-(3-(2-methoxy-5-pyrimidinyl)-phenyl)-N-(4-(2-methyl-4-pyridinyl)-phenyl)propanamide]
6.25	Cc1cc(-c2ccc(NC(=O)Cc3ccc(-c4ccccc4)cc3)cc2)ccn1 [Cpd 19, 2-(4-biphenylyl)-N-(4-(2-methyl-4-pyridinyl)phenyl)acetamide]
< 5.00	Cc1cc(-c2ccc(NC(=O)Cc3ccc4oc(-c5ccncc5)nc4c3)cc2)ccn1 [Cpd 584, N-(4-(2-methyl-4-pyridinyl)phenyl)-2-(2-(4-pyridinyl)-1,3-benzoxazol-5-yl)-acetamide]
< 5.00	Cc1cc(-c2ccc(NC(=O)[C@H]3CCCN3C(=O)OC(C)(C)C)cc2)ccn1 [Cpd 168]
< 5.00	Cc1cc(C(C)C(=O)Nc2ccc(-c3ccnc(C)c3)cc2)cc(N2CCC(F)(F)CC2)c1 (centres unmarked) [Cpd 637, 2-(3-(4,4-difluoro-1-piperidinyl)-5-methyl-phenyl)-N-(4-(2-methyl-4-pyridinyl)-phenyl)propanamide]
6.04	Cc1cc(-c2ccc(NC(=O)C(C)n3cc(-c4ccccc4)c(C)n3)cc2)ccn1 (centres unmarked) [Cpd 455, 2-(3-methyl-4-phenyl-1H-pyrazol-1-yl)-N-(4-(2-methyl-4-pyridinyl)phenyl)-propanamide]
< 5.00	Cc1cc(-c2ccc(NC(=O)C(C)c3ccc4c(c3)CCN4)cc2)ccn1 (centres unmarked) [Cpd 497, 2-(2,3-dihydro-1H-indol-5-yl)-N-(4-(2-methyl-4-pyridinyl)phenyl)propanamide]
< 5.00	Cc1cc(-c2ccc(NC(=O)C(CC(C)C)c3cccc(S(C)(=O)=O)c3)cc2)ccn1 (centres unmarked) [Cpd 145]
< 5.48	Cc1cc(-c2ccc(NC(=O)C3CC(=O)c4ccccc43)cc2)ccn1 (centres unmarked) [Cpd 120]
< 5.00	Cc1cc(-c2ccc(NC(=O)C(C)(C)c3ccc(Cl)cc3)cc2)ccn1 [Cpd 48, 2-(4-chlorophenyl)-2-methyl-N-(4-(2-methyl-4-pyridinyl)phenyl)propanamide]
5.67	Cc1cc(-c2ccc(NC(=O)c3cn4cc(Br)ccc4n3)cc2)ccn1 [Cpd 315]
6.46	Cc1cc(-c2ccc(NC(=O)[C@H](CC(C)C)c3cc(F)cc(F)c3)cc2)ccn1 [Cpd 190]
< 5.00	CC[C@@H](C(=O)Nc1ccc(-c2ccnc(C)c2)cc1)c1ccccc1 [Cpd 344, (2R)-N-(4-(2-methyl-4-pyridinyl)phenyl)-2-phenylbutanamide]
< 5.00	Cc1cc(-c2ccc(NC(=O)C(C)c3ccc(N)cc3)cc2)ccn1 (centres unmarked) [Cpd 419, 2-(4-aminophenyl)-N-(4-(2-methyl-4-pyridinyl)phenyl)propanamide]
5.49	Cc1cc(-c2ccc(NC(=O)Cc3ccc(OC(F)(F)F)cc3)cc2)ccn1 [Cpd 110, N-(4-(2-methyl-4-pyridinyl)phenyl)-2-(4-(trifluoromethoxy)phenyl)acetamide]
